According to US12195471B2, “Salt of aldose reductase inhibitor, and preparation method and application thereof” (CSPC ZHONGQI PHARMACEUTICAL TECHNOLOGY (SHIJIAZHUANG) CO., …, priority 2019, dated 2025):

How the values were obtained:
Assay type in all cases: physicochemical
Solubility test in water = conditions: for solubility: thermodynamic from solid, in purified water, saturated state
Method: The salts obtained in Example 1, Comparative examples 1, 2 and 6, and the compound of formula A were tested for solubility in water, and the test method was as follows:
Test method: the samples to be tested were taken in a certain amount, gradually added to the purified water respectively, and continuously shaked until the samples reached the saturated state, the weighed amount of the samples to be tested and the used amount of the solvent were recorded, the concentrations at which the samples were dissolved were calculated, and the test results were shown in the following table: […]

[1] = Stability test, accelerated test at 40° C.±2° C./75% RH±5% RH; conditions: for Content (%) / Maximum single impurity (%) / Moisture (%) / Total impurity (%): 40° C.±2° C./75% RH±5% RH
Method: The sodium salt of the compound of formula A obtained in Example 1 (packaging conditions: low-density polyethylene bag+polyester/aluminum/polyethylene composite bag for pharmaceutical packaging) was subjected to an accelerated test at 40° C.±2° C./75% RH±5% RH, and the results were as follows: […]

[2] = Hygroscopicity / stable existence of the obtained salt solid; conditions: concluding statement
Method: With reference to the preparation method of Example 1, the preparation of alkaline amino acid salts: lysine salt, arginine salt, and proline salt of the compound of formula A was carried out using methanol as the reaction solvent.

O=C(O)Cc1nn(Cc2nc3cc(C(F)(F)F)ccc3s2)c(=O)c2nccnc12 [Compound of formula A, reference compound]
solubility (Solubility test in water): 35 µg/mL | solubility in water (in words) (Solubility test in water): insoluble in water

O=C([O-])Cc1nn(Cc2nc3cc(C(F)(F)F)ccc3s2)c(=O)c2nccnc12.[Na+] [Example 1]
solubility (Solubility test in water): 10000 µg/mL | solubility in water (in words) (Solubility test in water): good solubility | Content (%) ([1]; 0 Month): 100.8% | Maximum single impurity (%) ([1]; 0 Month): 0.03% | Moisture (%) ([1]; 0 Month): 0.6% | Total impurity (%) ([1]; 0 Month): 0.40% | Content (%) ([1]; 1 Month): 99.6% | Maximum single impurity (%) ([1]; 1 Month): 0.03% | Moisture (%) ([1]; 1 Month): 0.7% | Total impurity (%) ([1]; 1 Month): 0.45% | Content (%) ([1]; 2 Month): 99.9% | Maximum single impurity (%) ([1]; 2 Month): 0.03% | Moisture (%) ([1]; 2 Month): 0.7% | Total impurity (%) ([1]; 2 Month): 0.37% | Content (%) ([1]; 3 Month): 99.6% | Maximum single impurity (%) ([1]; 3 Month): 0.03% | Moisture (%) ([1]; 3 Month): 0.8% | Total impurity (%) ([1]; 3 Month): 0.42% | Content (%) ([1]; 6 Month): 100.9% | Maximum single impurity (%) ([1]; 6 Month): 0.03% | Moisture (%) ([1]; 6 Month): 0.8% | Total impurity (%) ([1]; 6 Month): 0.54% | quality stability (in words) ([1]; concluding statement): stable quality | hygroscopicity (in words) [2]: low hygroscopicity
